Measured values published in the NIST ThermoML archive (doi:10.1016/j.jct.2015.06.004).

Key:
[1] = excess molar enthalpy (molar enthalpy of mixing); xn = mol fraction of the nth substance listed; conditions: 298.15 K, 100 kPa, Liquid, Power-compensation calorimetry
[2] = 298.15 K; 101.33 kPa; Liquid; Vibrating tube method

CCCC[N+]1(C)CCCC1.N#C[B-](C#N)(C#N)C#N [1-butyl-1-methylpyrrolidinium tetracyanoborate] + Cc1ccccc1
[1]
Conditions | excess molar enthalpy [kcal/mol]
x1 = 0.0179 | -0.0242
x1 = 0.0359 | -0.0474
x1 = 0.0539 | -0.0702
x1 = 0.0719 | -0.093
x1 = 0.0898 | -0.116
x1 = 0.1079 | -0.138
x1 = 0.1259 | -0.161
x1 = 0.1439 | -0.184
x1 = 0.1619 | -0.206
x1 = 0.1799 | -0.228
x1 = 0.1979 | -0.249
x1 = 0.2159 | -0.271
x1 = 0.2339 | -0.291
x1 = 0.2519 | -0.304
x1 = 0.2698 | -0.313
x1 = 0.2878 | -0.319
x1 = 0.2933 | -0.315
x1 = 0.3059 | -0.322
x1 = 0.3203 | -0.319
x1 = 0.3239 | -0.323
x1 = 0.3369 | -0.321
x1 = 0.3603 | -0.312
x1 = 0.4004 | -0.301
x1 = 0.4405 | -0.285
x1 = 0.4805 | -0.267
x1 = 0.5206 | -0.247
x1 = 0.5606 | -0.226
x1 = 0.6006 | -0.206
x1 = 0.6407 | -0.184
x1 = 0.6807 | -0.163
x1 = 0.7207 | -0.141
x1 = 0.7606 | -0.12
x1 = 0.8006 | -0.0991
x1 = 0.8405 | -0.0784
x1 = 0.8803 | -0.058
x1 = 0.9202 | -0.0379
x1 = 0.9601 | -0.0183

CCCO [propan-1-ol]
Conditions | mass density [kg/m3]
[2] | 799.56

c1ccccc1 [benzene]
Conditions | mass density [kg/m3]
[2] | 873.57

CCCCO [butan-1-ol]
Conditions | mass density [kg/m3]
[2] | 805.79

Cc1ccccc1 [toluene]
Conditions | mass density [kg/m3]
[2] | 862.22

CCCC[N+]1(C)CCCC1.N#C[B-](C#N)(C#N)C#N [1-butyl-1-methylpyrrolidinium tetracyanoborate] + CCCO
[1]
Conditions | excess molar enthalpy [kcal/mol]
x1 = 0.014 | 0.0518
x1 = 0.028 | 0.0994
x1 = 0.042 | 0.143
x1 = 0.056 | 0.183
x1 = 0.07 | 0.22
x1 = 0.084 | 0.255
x1 = 0.098 | 0.287
x1 = 0.112 | 0.317
x1 = 0.126 | 0.345
x1 = 0.1399 | 0.37
x1 = 0.1539 | 0.394
x1 = 0.168 | 0.417
x1 = 0.1819 | 0.437
x1 = 0.1959 | 0.456
x1 = 0.21 | 0.474
x1 = 0.224 | 0.49
x1 = 0.2257 | 0.484
x1 = 0.238 | 0.504
x1 = 0.252 | 0.518
x1 = 0.2592 | 0.522
x1 = 0.264 | 0.528
x1 = 0.2983 | 0.553
x1 = 0.3374 | 0.573
x1 = 0.3765 | 0.584
x1 = 0.4156 | 0.588
x1 = 0.4547 | 0.584
x1 = 0.4938 | 0.573
x1 = 0.5329 | 0.556
x1 = 0.572 | 0.533
x1 = 0.611 | 0.505
x1 = 0.65 | 0.471
x1 = 0.6891 | 0.433
x1 = 0.7282 | 0.39
x1 = 0.7672 | 0.343
x1 = 0.8062 | 0.292
x1 = 0.8451 | 0.238
x1 = 0.8839 | 0.18
x1 = 0.9228 | 0.119
x1 = 0.9615 | 0.0556

CCCC[N+]1(C)CCCC1.N#C[B-](C#N)(C#N)C#N [1-butyl-1-methylpyrrolidinium tetracyanoborate]
Conditions | mass density [kg/m3]
[2] | 975.61

CCCC[N+]1(C)CCCC1.N#C[B-](C#N)(C#N)C#N [1-butyl-1-methylpyrrolidinium tetracyanoborate] + c1ccsc1
[1]
Conditions | excess molar enthalpy [kcal/mol]
x1 = 0.0147 | -0.0239
x1 = 0.0293 | -0.0467
x1 = 0.0439 | -0.0692
x1 = 0.0586 | -0.0916
x1 = 0.0732 | -0.114
x1 = 0.0879 | -0.136
x1 = 0.1026 | -0.158
x1 = 0.1173 | -0.18
x1 = 0.1321 | -0.202
x1 = 0.1468 | -0.224
x1 = 0.1616 | -0.245
x1 = 0.1763 | -0.263
x1 = 0.1911 | -0.279
x1 = 0.2059 | -0.292
x1 = 0.2207 | -0.302
x1 = 0.2316 | -0.303
x1 = 0.2355 | -0.31
x1 = 0.2503 | -0.316
x1 = 0.2515 | -0.311
x1 = 0.2642 | -0.319
x1 = 0.2763 | -0.315
x1 = 0.316 | -0.313
x1 = 0.3559 | -0.303
x1 = 0.3957 | -0.289
x1 = 0.4356 | -0.272
x1 = 0.4756 | -0.253
x1 = 0.5155 | -0.233
x1 = 0.5556 | -0.213
x1 = 0.5958 | -0.192
x1 = 0.636 | -0.172
x1 = 0.6763 | -0.151
x1 = 0.7165 | -0.131
x1 = 0.757 | -0.111
x1 = 0.7974 | -0.0918
x1 = 0.8378 | -0.0726
x1 = 0.8782 | -0.0537
x1 = 0.9188 | -0.0352
x1 = 0.9595 | -0.017

c1ccsc1 [thiophene]
Conditions | mass density [kg/m3]
[2] | 1058.46

CCCC[N+]1(C)CCCC1.N#C[B-](C#N)(C#N)C#N [1-butyl-1-methylpyrrolidinium tetracyanoborate] + CCCCO
[1]
Conditions | excess molar enthalpy [kcal/mol]
x1 = 0.0149 | 0.0582
x1 = 0.03 | 0.111
x1 = 0.0449 | 0.159
x1 = 0.0599 | 0.202
x1 = 0.0749 | 0.242
x1 = 0.0899 | 0.279
x1 = 0.1049 | 0.313
x1 = 0.1199 | 0.344
x1 = 0.1349 | 0.373
x1 = 0.1499 | 0.4
x1 = 0.1649 | 0.425
x1 = 0.1799 | 0.448
x1 = 0.1949 | 0.469
x1 = 0.2099 | 0.489
x1 = 0.2248 | 0.507
x1 = 0.2399 | 0.524
x1 = 0.2549 | 0.539
x1 = 0.2698 | 0.553
x1 = 0.2849 | 0.565
x1 = 0.2999 | 0.576
x1 = 0.4828 | 0.591
x1 = 0.5199 | 0.579
x1 = 0.557 | 0.561
x1 = 0.5941 | 0.537
x1 = 0.631 | 0.508
x1 = 0.6681 | 0.474
x1 = 0.7049 | 0.435
x1 = 0.7419 | 0.392
x1 = 0.7789 | 0.346
x1 = 0.8157 | 0.295
x1 = 0.8525 | 0.242
x1 = 0.8892 | 0.186
x1 = 0.9262 | 0.126
x1 = 0.9632 | 0.0638

CCCC[N+]1(C)CCCC1.N#C[B-](C#N)(C#N)C#N [1-butyl-1-methylpyrrolidinium tetracyanoborate] + CO
[1]
Conditions | excess molar enthalpy [kcal/mol]
x1 = 0.013 | 0.0258
x1 = 0.026 | 0.0519
x1 = 0.039 | 0.0782
x1 = 0.052 | 0.104
x1 = 0.065 | 0.129
x1 = 0.078 | 0.153
x1 = 0.091 | 0.176
x1 = 0.104 | 0.197
x1 = 0.117 | 0.218
x1 = 0.13 | 0.237
x1 = 0.1362 | 0.255
x1 = 0.143 | 0.254
x1 = 0.156 | 0.271
x1 = 0.1602 | 0.288
x1 = 0.169 | 0.287
x1 = 0.1775 | 0.297
x1 = 0.2003 | 0.334
x1 = 0.2404 | 0.37
x1 = 0.2805 | 0.399
x1 = 0.3207 | 0.419
x1 = 0.3608 | 0.432
x1 = 0.4009 | 0.439
x1 = 0.441 | 0.439
x1 = 0.4812 | 0.434
x1 = 0.5213 | 0.423
x1 = 0.5615 | 0.407
x1 = 0.6016 | 0.386
x1 = 0.6416 | 0.361
x1 = 0.6816 | 0.331
x1 = 0.7217 | 0.298
x1 = 0.7616 | 0.261
x1 = 0.8015 | 0.221
x1 = 0.8414 | 0.177
x1 = 0.8814 | 0.13
x1 = 0.9213 | 0.0811
x1 = 0.9606 | 0.0317

CCO [ethanol]
Conditions | mass density [kg/m3]
[2] | 785.39

CCCC[N+]1(C)CCCC1.N#C[B-](C#N)(C#N)C#N [1-butyl-1-methylpyrrolidinium tetracyanoborate] + CCO
[1]
Conditions | excess molar enthalpy [kcal/mol]
x1 = 0.0134 | 0.0375
x1 = 0.0268 | 0.0729
x1 = 0.0402 | 0.107
x1 = 0.0537 | 0.14
x1 = 0.0672 | 0.171
x1 = 0.0808 | 0.201
x1 = 0.0948 | 0.23
x1 = 0.1088 | 0.257
x1 = 0.1228 | 0.283
x1 = 0.1368 | 0.307
x1 = 0.1509 | 0.329
x1 = 0.1511 | 0.334
x1 = 0.165 | 0.35
x1 = 0.1652 | 0.355
x1 = 0.1792 | 0.369
x1 = 0.1902 | 0.389
x1 = 0.1933 | 0.387
x1 = 0.2067 | 0.403
x1 = 0.2202 | 0.424
x1 = 0.2403 | 0.444
x1 = 0.2803 | 0.477
x1 = 0.3203 | 0.501
x1 = 0.3604 | 0.517
x1 = 0.4005 | 0.525
x1 = 0.4406 | 0.527
x1 = 0.4806 | 0.521
x1 = 0.5206 | 0.51
x1 = 0.5607 | 0.492
x1 = 0.6007 | 0.47
x1 = 0.6408 | 0.441
x1 = 0.6807 | 0.408
x1 = 0.7203 | 0.371
x1 = 0.7604 | 0.328
x1 = 0.8002 | 0.282
x1 = 0.8402 | 0.232
x1 = 0.8802 | 0.178
x1 = 0.9201 | 0.121
x1 = 0.96 | 0.0612

CCCC[N+]1(C)CCCC1.N#C[B-](C#N)(C#N)C#N [1-butyl-1-methylpyrrolidinium tetracyanoborate] + c1ccccc1
[1]
Conditions | excess molar enthalpy [kcal/mol]
x1 = 0.0138 | -0.0203
x1 = 0.0277 | -0.0402
x1 = 0.0415 | -0.06
x1 = 0.0555 | -0.0799
x1 = 0.0694 | -0.0998
x1 = 0.0834 | -0.12
x1 = 0.0975 | -0.14
x1 = 0.1115 | -0.16
x1 = 0.1256 | -0.18
x1 = 0.1398 | -0.2
x1 = 0.1539 | -0.219
x1 = 0.1681 | -0.238
x1 = 0.1824 | -0.253
x1 = 0.1966 | -0.266
x1 = 0.2109 | -0.277
x1 = 0.2253 | -0.285
x1 = 0.2396 | -0.29
x1 = 0.2534 | -0.29
x1 = 0.254 | -0.294
x1 = 0.2685 | -0.296
x1 = 0.2767 | -0.296
x1 = 0.28 | -0.296
x1 = 0.3165 | -0.294
x1 = 0.3564 | -0.284
x1 = 0.3963 | -0.269
x1 = 0.4362 | -0.252
x1 = 0.4762 | -0.232
x1 = 0.5162 | -0.212
x1 = 0.5564 | -0.192
x1 = 0.5965 | -0.172
x1 = 0.6367 | -0.153
x1 = 0.6769 | -0.134
x1 = 0.7172 | -0.116
x1 = 0.7575 | -0.0981
x1 = 0.7979 | -0.0803
x1 = 0.8384 | -0.0632
x1 = 0.8788 | -0.0466
x1 = 0.9191 | -0.0305
x1 = 0.9596 | -0.0149

CO [methanol]
Conditions | mass density [kg/m3]
[2] | 786.6
